System: human umbilical vein endothelial cells (HUVECS)
Experiment: neutrophil rolling on endothelial cell monolayers under flow conditions (rolling index)
Assay type: cell-based
Conditions: HUVEC monolayers incubated in glycated serum protein for 4 hours, perfused with human neutrophils (FIG. 18, FIG. 19)
Procedure: Monolayers of human umbilical vein endothelial cells (HUVECS) were incubated in glycated serum proteins (FIG. 18, glycated albumin, Gly-HSA or FIG. 19, glycated hemoglobin, Gly-Hb) for 4 hours. Monolayers were then inserted into a flow chamber and the chamber was perfused with human neutrophils (10^6 cell/ml) at a flow rate corresponding to a wall shear stress of 0.9 dynes/cm^2. Digital images were acquired and analyzed to determine the rolling index (RI) which is a measure of the degree of neutrophil rolling on the endothelial cell monolayer.

Substance: glycated hemoglobin: glycated serum protein used to stimulate endothelial cells
- increase in neutrophil rolling (rolling index): ~2.8 fold

Reference: US8026222B2, “Methods of use of glycomimetics with replacements for hexoses and n-acetyl hexosamines” (GlycoMimetics, Inc., priority 2007, dated 2011)
